Laboratory results reported in patent US4452985A, “2-Guanyl-4-(substituted phenyl) thiazole derivatives” (American Home Products Corporation, priority 1983, dated 1984).
Where a name gives a salt, the structure may show the parent alone. Read-outs that look alike come from different tables or passages of the source. Each block holds one compound with its values, some of them ahead of it.

What was measured:
gastric acid secretion = test: Gastric secretion in the pylorus-ligated rat (modified Shay procedure); format: in vivo; details: intraduodenal, 4 hours after ligation, read-out: % Inhibition of acid output; for inhibition in vivo at 32 mg/kg: 32 mg/kg i.d.; for inhibition in vivo at 16 mg/kg: 16 mg/kg i.d.; for inhibition in vivo at 4 mg/kg: 4 mg/kg i.d.
Method: The procedure for testing gastric secretion in the rat, a modification of the procedure of Shay et al., Gastroenterology, 26, 906-13 (1954) is carried out as follows:
Male Charles River rats weighing 200-300 grams are deprived of food but not water for 24 hours prior to use. Water is, however, withheld during the experiment. The rats are weighed, anesthetized, and the pylorus ligated according to the method of Shay et al. Treatment or vehicle control is then administered interduodenally (i.d.). Rats are housed 2/cage and sacrificed with CO2 four hours after ligation. The stomachs are removed, rinsed, and contents emptied into a graduated centrifuge tube. The tubes are centrifuged for 20 minutes at 2,000 RPM and the volume of gastric juice recorded. Any samples obviously contaminated by feces, food or hemolysis are eliminated. An aliquot of each is frozen for later analysis of Na^+, K^+ and Cl^- concentration. The pH is measured and 1 ml. of gastric juice is titrated with 0.1 N NaOH to a pH of 7.0-7.4. Titratable acid output is calculated in microequivalents and the percent inhibition of acid output is calculated as follows: [formula]

H2 histamine receptors [1] = target: T1, H2 histamine receptors (Cavia porcellus, UniProt P47747); test: Guinea pig heart (spontaneously beating right atrium) test: antagonism of histamine-induced positive chronotropic response; format: cell-based; details: 30 min preincubation, 32 °C, pH 7.4
T1 construct: from tissue; host or cells: guinea pig right atrium (spontaneously beating)
T1 sequence (P47747 whole entry): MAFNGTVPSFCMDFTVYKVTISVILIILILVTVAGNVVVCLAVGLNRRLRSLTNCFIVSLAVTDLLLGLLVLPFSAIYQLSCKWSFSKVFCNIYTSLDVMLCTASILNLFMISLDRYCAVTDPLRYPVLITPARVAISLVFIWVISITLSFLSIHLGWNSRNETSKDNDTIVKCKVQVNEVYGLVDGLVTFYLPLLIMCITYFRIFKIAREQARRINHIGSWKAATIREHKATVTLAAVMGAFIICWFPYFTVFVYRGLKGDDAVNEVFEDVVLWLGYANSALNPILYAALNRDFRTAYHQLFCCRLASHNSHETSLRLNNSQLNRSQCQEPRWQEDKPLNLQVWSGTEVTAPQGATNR
Method: The guinea pig heart atrium test is carried out as follows:
A guinea pig right atrium is suspended at 1 g. tension (isometric) in a thermostatically controlled (32° C.) tissue bath (10 ml.) containing oxygenated (95% O2; 5% CO2) Krebs-Haenseleit buffer (pH 7.4). The tissue is allowed to stabilize over 1 hour. Individual contractions are recorded with a force-displacement transducer through a strain gauge coupler. A control dose-response curve to histamine in the above described tissue bath is obtained after which the tissue is washed 3 times and allowed to re-equilibrate to basal rate. The test compound is added to the tissue bath at the desired final concentration. Thirty minutes after addition of the compound, a fresh histamine dose response curve is again obtained. Then the response to histamine in the presence of antagonist is compared to the histamine control response. This procedure is repeated, using fresh tissues, for each concentration of antagonist tested.

[2] = cited from earlier work
H2 histamine receptors [3] = details: cited from earlier work
[4] = histamine dose-response, three experiments, read-out: pA2 Value (apparent dissociation constant of the H2 antagonist) (converted)
[5] = values marked *: result of only one experiment, read-out: pKB value (converted)

Structure (SMILES): N=C(N)Nc1nc(-c2cccc(C(N)=NO)c2)cs1 [Example 5, 3-[2-[(Aminoiminomethyl)Amino]-4-Thiazolyl]-N-Hydroxybenzenecarboximidamide, Dihydrochloride]
inhibition in vivo at 32 mg/kg (gastric acid secretion): 68%
Kb (H2 histamine receptors [1]; [4]): 50.1 nM

Structure (SMILES): N#Cc1cccc(-c2csc(NC(=N)N)n2)c1 [Example 3, [4-(3-Cyanophenyl)-2-Thiazolyl]Guanidine, Hydrobromide, Hydrate]
inhibition in vivo at 4 mg/kg (gastric acid secretion): 40%
Kb (H2 histamine receptors [1]; [4]): 251 nM

Structure (SMILES): N#CCc1ccc(-c2csc(NC(=N)N)n2)cc1 [Example 2, [4-[4-(Cyanomethyl)Phenyl]-2-Thiazolyl]Guanidine, Hydrobromide]
inhibition in vivo at 32 mg/kg (gastric acid secretion): 79%

Structure (SMILES): N#Cc1ccc(-c2csc(NC(=N)N)n2)cc1 [Example 1, [4-(4-Cyanophenyl)-2-Thiazolyl]Guanidine, Hydrobromide]
inhibition in vivo at 16 mg/kg (gastric acid secretion): 50%

Structure (SMILES): N=C(N)Nc1nc(-c2cccc(C(=O)O)c2)cs1 [Example 4, 3-[2-[(Aminoiminomethyl)Amino]-4-Thiazolyl]Benzoic Acid, Hydrochloride]
pKB value (H2 histamine receptors [1]; values marked *: result of only one experiment): 6.1

Structure (SMILES): N=C(N)Nc1nc(-c2cccc(-c3noc(C(F)(F)F)n3)c2)cs1 [Example 8, [4-[3-[5-(Trifluoromethyl)-1,2,4-Oxadiazol-3-yl]Phenyl]-2-Thiazoyl]Guanidine, Hydrochloride]
inhibition in vivo at 32 mg/kg (gastric acid secretion): 84%

Structure (SMILES): CN/C(=N/CCSCc1nc[nH]c1C)NC#N [Cimetidine]
tendency to cause confusional states ([2]; elderly patients): tendency to cause confusional states in elderly patients
anti-androgenic activity ([2]; patients): anti-androgenic activity
duration of action ([2]; patients): short duration of action

Structure (SMILES): CNC(=NC#N)NCCSCc1csc(N=C(N)N)n1 [tiotidine]
H2 antagonist activity relative to cimetidine (in words) (H2 histamine receptors [3]): greater activity than cimetidine

Structure (SMILES): CCOC(=N)c1cccc(-c2csc(NC(=N)N)n2)c1 [Example 10, 3-[2-[(Aminoiminomethyl)Amino]-4-Thiazolyl]Benzenecarboximidic Acid Ethyl Ester]
inhibition in vivo at 4 mg/kg (gastric acid secretion): 41%

Further lines, with some results ahead:

Kb (H2 histamine receptors [1]; [5]): 6.31 nM
Structure (SMILES): CN=C(N)c1cccc(-c2csc(NC(=N)N)n2)c1 [Example 12, 3-[2-[(Aminoiminomethyl)Amino]-4-Thiazolyl]-N-Methylbenzenecarboximidamide,Quarter Hydrate]
inhibition in vivo at 16 mg/kg (gastric acid secretion): 75%

Kb (H2 histamine receptors [1]; [5]): 79.4 nM
Structure (SMILES): N=C(N)Nc1nc(-c2cccc(C(=O)NN)c2)cs1 [Example 13, 3-[2-[(Aminoiminomethyl)Amino]-4-Thiazolyl]Benzoic Acid Hydrazide, Hydrochloride]

Kb (H2 histamine receptors [1]; [4]): 5.01 nM
Structure (SMILES): N=C(N)Nc1nc(-c2cccc(C(=N)N)c2)cs1 [Example 9, 3-[2-[(Aminoiminomethyl)Amino]-4-Thiazolyl]Benzenecarboximidamide, Dihydrobromide, Hemiethanolate]
inhibition in vivo at 32 mg/kg (gastric acid secretion): 55%

Kb (H2 histamine receptors [1]; [4]): 39.8 nM
Structure (SMILES): CC(=O)ON=C(N)c1cccc(-c2csc(NC(=N)N)n2)c1 [Example 7, N-(Acetyloxy)-3-[[2-[(Aminoiminomethyl)Amino]-4-Thiazolyl]Benzenecarboximidamide, Dihydrochloride]

Kb (H2 histamine receptors [1]; [4]): 63.1 nM
Structure (SMILES): N=C(N)Nc1nc(-c2cccc(C(N)=NOC(N)=O)c2)cs1 [Example 6, N-[(Aminocarbonyl)oxy]-3-[2-[(Aminoiminomethyl)Amino]-4-Thiazolyl]Benzenecarboximidamide, Hydrochloride, Hemihydrate]

Kb (H2 histamine receptors [1]; [5]): 50.1 nM
Structure (SMILES): N=C(N)Nc1nc(-c2cccc(C(N)=O)c2)cs1 [Example 11, 3-[2-[(Aminoiminomethyl)Amino]-4-Thiazolyl]Benzenecarboxamide, Hydrobromide]
